From US6492416B1, “4,5-diaryl-3(2H)-furanone derivatives as cyclooxygenase-2 inhibitors” (Pacific Corporation, priority 1999, dated 2002)
Values after ≈ are worked out from the molar mass of the structure shown.

Tests used:
COX-1 = biological target: T1, COX-1 (Mus musculus, UniProt P22437); experiment: Evaluation of COX-1 activity: PGE2 formation in mouse peritoneal macrophages without aspirin and LPS treatment; format: cell-based; details: for IC50: read-out: IC50, μg/ml COX-1 (converted)
T1 sequence (P22437 27-602): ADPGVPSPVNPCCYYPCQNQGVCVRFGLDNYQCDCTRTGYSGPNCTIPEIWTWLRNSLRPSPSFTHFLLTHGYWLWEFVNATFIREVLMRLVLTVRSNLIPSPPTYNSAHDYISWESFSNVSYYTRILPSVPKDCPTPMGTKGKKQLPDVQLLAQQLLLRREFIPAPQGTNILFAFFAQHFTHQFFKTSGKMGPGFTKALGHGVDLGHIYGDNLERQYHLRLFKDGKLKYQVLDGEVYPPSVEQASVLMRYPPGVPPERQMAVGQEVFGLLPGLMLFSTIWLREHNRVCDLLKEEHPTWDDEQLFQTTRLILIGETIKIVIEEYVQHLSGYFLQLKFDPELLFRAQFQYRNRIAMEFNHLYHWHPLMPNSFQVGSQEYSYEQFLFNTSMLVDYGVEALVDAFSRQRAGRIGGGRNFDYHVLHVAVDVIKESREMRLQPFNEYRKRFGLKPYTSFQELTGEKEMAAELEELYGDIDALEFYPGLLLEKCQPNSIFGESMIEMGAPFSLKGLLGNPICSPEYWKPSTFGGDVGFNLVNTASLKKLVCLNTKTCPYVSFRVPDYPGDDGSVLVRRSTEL
Protocol: (§1) Evaluation of in vitro COX-2 and COX-1 Activity [J. Pharmacol. Exp. Ther. 166, 96 (1969)]
(§2) The abdominal skin of a C57BL/6 mouse was sanitized with 70% aqueous ethanol, and was removed without damaging the peritoneum. 5 ml of cold phosphate buffer solution (PBS) was then injected into the abdominal cavity. After a minute, the peritoneal fluid containing the macrophages was collected using a syringe and a needle. The collected fluid was centrifuged for 5 min at 1500 rpm to afford pellets of cells. The pellets were then dispersed in the RPMI-1640 culture medium containing 100 units/ml penicillin and 100 μg/ml streptomycin.
(§3) The pellets dispersed as above were treated with 500 μM aspirin in order to knock out the activity of the COX-1 enzymes in the cells. The suspension was then diluted with the RPMI-1640 medium to contain 1×10^6 cells/ml. 100 μl of the suspension was added to each well of a 96-well ELISA plate. Then the plate was incubated for 2 hrs at 37° C. under 5% CO2 in order to fix the macrophages onto the plate. The cells, which were not fixed onto the plate were removed by washing with PBS two times. The purity of macrophages obtained thereby was confirmed by differential counting. The RPMI-1640 medium containing 3% fetal bovine serum albumin was added to each well of the plate, which was followed by stimulation with 10 μg/ml lipopolysaccharide (LPS). Usually 5×10^5 cells/ml were present by this preparation. The LPS-treated suspensions were incubated for 16 hours at 37° C. under 5% CO2 to induce COX-2. Then the culture medium was removed and the macrophages were washed two times with PBS. Then 130 μl RPMI-1640 culture medium was added to each well and the macrophage solutions were incubated at 37° C. for 10 minutes, which was followed by the treatment with 10 μM arachidonic acid and an appropriate amount of compounds of this invention. The plate was incubated for another 10 minutes. The upper solution was collected using a micropipette and was subjected to determination of PGE2 amount in the solution. The amount of PGE2 present in the collected solution was determined either by a known radio-immuno assay or by a known enzyme-immunoassay [Methods in Enzymol. 86, 258 (1982); Methods in Enzymol. 187, 24 (1990)]. The extent of COX-2 inhibition by a compound of the present invention was calculated by assuming, that the amount of PGE2 formed with the treatment of 10 μg/ml arachidonic acid was used is the maximum possible amount of PGE2, and that the amount of PGE2 formed without the treatment of arachidonic acid is the minimum possible amount of PGE2.
In the evaluation of COX-1 inhibitory activity by a compound of the present invention, the same procedures employed for evaluation of COX-2 activity were employed, except omitting the following two steps: 1) the treatment with aspirin for knockout of COX-1 activity and 2) treatment with LPS for induction of COX-2.
(§4) In order to determine IC50 for a compound of this invention, enzymatic activities were measured at multiple concentrations of compounds of this invention around IC50 of the compound. Usually enzymatic activities at 4˜5 concentrations were measured to calculate out IC50 for a compound of this invention.

COX-2 = biological target: T2, COX-2 (Mus musculus, UniProt Q05769); experiment: Evaluation of COX-2 activity: PGE2 formation in aspirin-treated, LPS-stimulated mouse peritoneal macrophages; format: cell-based; details: for IC50: read-out: IC50, μg/ml COX-2 (converted)
T2 sequence (Q05769 18-604): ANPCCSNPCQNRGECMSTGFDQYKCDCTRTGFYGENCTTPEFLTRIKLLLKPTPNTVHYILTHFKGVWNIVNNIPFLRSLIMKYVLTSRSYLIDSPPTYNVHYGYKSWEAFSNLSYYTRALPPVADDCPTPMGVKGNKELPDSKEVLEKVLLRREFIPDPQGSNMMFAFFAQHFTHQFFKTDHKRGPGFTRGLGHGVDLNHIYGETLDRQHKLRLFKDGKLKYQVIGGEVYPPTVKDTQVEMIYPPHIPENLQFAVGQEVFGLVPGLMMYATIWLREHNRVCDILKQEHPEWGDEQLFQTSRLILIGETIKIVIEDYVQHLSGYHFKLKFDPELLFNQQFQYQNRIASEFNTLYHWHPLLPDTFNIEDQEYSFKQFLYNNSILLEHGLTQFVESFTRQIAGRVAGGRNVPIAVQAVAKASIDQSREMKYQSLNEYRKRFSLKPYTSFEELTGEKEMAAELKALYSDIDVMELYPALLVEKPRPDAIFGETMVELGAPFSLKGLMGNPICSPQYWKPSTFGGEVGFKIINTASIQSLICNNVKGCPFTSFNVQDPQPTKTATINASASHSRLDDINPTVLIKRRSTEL
Protocol: as §1, §2
as §3, with “The purity of macrophages obtained thereby was confirmed by differential counting.” left out, “Usually 5×10^5 cells/ml were present by this preparation.” left out
as §4

IC50, μg/ml COX-1 (COX-1)	IC50, μg/ml COX-2 (COX-2)	melting point	IC50 (COX-1)	IC50 (COX-2)	SMILES
30 µg/mL (≈ 86.1 µM)	0.2 µg/mL (≈ 0.574 µM)				CC1(C)OC(c2ccc(S(C)(=O)=O)cc2)=C(c2ccsc2)C1=O [Example 17, 2,2-Dimethyl-5-{4-(methylsulfonyl)phenyl}4-(3-thienyl)-3(2H)-furanone]
30 µg/mL (≈ 79.6 µM)	0.05 µg/mL (≈ 0.133 µM)				CC1(C)OC(c2ccc(S(C)(=O)=O)c(Cl)c2)=C(c2ccccc2)C1=O [Example 357, 5-{3-Chloro-4(methylsulfonyl)phenyl}-2,2-dimethyl-4-phenyl-3(2H)-furanone]
30 µg/mL (≈ 80.5 µM)	0.1 µg/mL (≈ 0.268 µM)				COc1cccc(C2=C(c3ccc(S(C)(=O)=O)cc3)OC(C)(C)C2=O)c1 [Example 95]
3 µg/mL (≈ 8.61 µM)	0.03 µg/mL (≈ 0.0861 µM)				CC1(C)OC(c2ccc(S(C)(=O)=O)cc2)=C(c2cccs2)C1=O [Example 113]
30 µg/mL (≈ 65.8 µM)	0.02 µg/mL (≈ 0.0439 µM)				CC1(C)OC(c2ccc(S(C)(=O)=O)c(Br)c2)=C(c2cccc(Cl)c2)C1=O [Example 342]
5 µg/mL (≈ 13.2 µM)		162 °C			CC1(C)OC(c2ccc(S(C)(=O)=O)cc2)=C(c2ccc(F)c(F)c2)C1=O [Example 80]
30 µg/mL (≈ 90.3 µM)	0.2 µg/mL (≈ 0.602 µM)				CC1(C)OC(c2ccc(S(C)(=O)=O)cc2)=C(c2ccco2)C1=O [Example 18, 2,2-Dimethyl-4-(2-furanyl)-5-{4-(methylsulfonyl)phenyl}-3(2H)-furanone]
600 µg/mL (≈ 1480 µM)	0.3 µg/mL (≈ 0.739 µM)				CCNS(=O)(=O)c1ccc(C2=C(c3ccccc3)C(=O)C(C)(C)O2)cc1Cl [Example 373, 5-{3-Chloro-4-(N-ethylaminosulfonyl)phenyl}-2,2-dimethyl-4-phenyl-3(2H)-furanone]
50 µg/mL (≈ 140 µM)	0.2 µg/mL (≈ 0.56 µM)				CCC1(C)OC(c2ccc(S(C)(=O)=O)cc2)=C(c2cccnc2)C1=O (stereo not shown) [Example 36, 2-Ethyl-2-methyl-5-{4-(methylsulfonyl)phenyl}-4-(3-pyridyl)-3(2H)-furanone]
			50.2 µM	0.251 µM	CCC1(C)OC(c2ccc(S(C)(=O)=O)cc2)=C(c2cccc(C(C)C)c2)C1=O (stereo not shown) [Example 201]
50 µg/mL (≈ 133 µM)		100 to 103 °C			CC1(C)OC(c2ccc(S(C)(=O)=O)cc2)=C(c2ccccc2Cl)C1=O [Example 69]

Further lines, the compound ahead of its results:

SMILES	IC50, μg/ml COX-1 (COX-1)	IC50, μg/ml COX-2 (COX-2)	melting point	IC50 (COX-1)	IC50 (COX-2)
CC1(C)OC(c2ccc(S(N)(=O)=O)c(F)c2)=C(c2ccccc2)C1=O [Example 300, 5-{4(Aminosulfonyl)-3-fluorophenyl}-2,2-dimethyl-4-phenyl-3(2H)-furanone]	20 µg/mL (≈ 55.3 µM)	0.03 µg/mL (≈ 0.083 µM)			
CCC1(CC)OC(c2ccc(S(C)(=O)=O)cc2)=C(c2ccc(C(C)=O)cc2)C1=O [Example 49, 4-(4-Acetylphenyl)-2,2-diethyl-5-{4-(methylsulfonyl)phenyl}-3(2H)-furanone]	30 µg/mL (≈ 72.7 µM)	0.3 µg/mL (≈ 0.727 µM)			
C[S+]([O-])c1ccc(C2=C(c3cccc(F)c3)C(=O)C(C)(C)O2)cc1F (stereo not shown) [Example 290, 2,2-Dimethyl-5-{3-fluoro-4-(methylsulfinyl)phenyl)-4-(3-fluorophenyl)-3(2H)-furanone]	20 µg/mL (≈ 55.2 µM)	0.3 µg/mL (≈ 0.828 µM)			
COc1ccc(C2=C(c3ccc(S(N)(=O)=O)cc3)OC(C)(C)C2=O)cc1OC [Example 24, 5-{4-(Aminosulfonyl)phenyl}-4-{3,4-(dimethoxy)phenyl}-2,2-dimethyl 3(2H)-furanone]	6.97 µg/mL (≈ 17.3 µM)	0.034 µg/mL (≈ 0.0843 µM)			
CCCc1ccc(C2=C(c3ccc(S(C)(=O)=O)cc3)OC(C)(CC)C2=O)cc1 (stereo not shown) [Example 202]				7.53 µM	0.0753 µM
CC(C)c1ccc(C2=C(c3ccc(S(C)(=O)=O)cc3)OC3(CCCC3)C2=O)cc1 [Example 54, 3-(4-Isopropylphenyl)-2-{4-(methylsulfonyl)phenyl}-1-oxa-spiro[4,4]non-2-en-4-one]		0.05 µg/mL (≈ 0.122 µM)			
Cc1cc(C2=C(c3cc(F)cc(F)c3)C(=O)C(C)(C)O2)ccc1S(N)(=O)=O [Example 384, 5-{4-(Aminosulfonyl)-3-methylphenyl}-4-(3-difluorophenyl)-2,2-dimethyl-3(2H)-furanone]	30 µg/mL (≈ 76.3 µM)	0.08 µg/mL (≈ 0.203 µM)			
CC1(C)OC(c2ccc(S(C)(=O)=O)c(Br)c2)=C(c2cc(F)ccc2F)C1=O [Example 344]	200 µg/mL (≈ 437 µM)	0.08 µg/mL (≈ 0.175 µM)			
